Paper PMC6891695, “Evaluation of Antifouling Potential and Ecotoxicity of Secondary Metabolites Derived from Red Algae of the Genus Laurencia” (Marine Drugs, 2019)

How the values were obtained:
[1] = system: HEK293 cell line; assay: HEK293 alamar blue/resazurin assay (mitochondria function); type: cell-based, human; details: for EC50: Homo sapiens, HEK293, Alamar blue/Resazurin assay, 48 h incubation; for effect on mitochondrial function and metabolism (in words): HEK293
Experimental: The RTL-W1 cell line, a non-transformed rainbow trout liver cell line that has already been used in environmental toxicity assays, was established from the normal liver of an adult rainbow trout by proteolytic dissociation of liver fragments. RTL-W1 cells were cultured in 75 cm^2 culture flasks (Orange Scientific, Braine l’Alleud, Belgium) at 20 °C in Leibovitz’s (L-15, Sigma-Aldrich, St. Louis, MO, USA) medium supplemented with 5% fetal bovine serum (FBS) and 1% L-glutamine in CO2-free incubator. For the cytotoxicity assays of the selected secondary metabolites, cells were seeded at 3 × 10^4 cells/well density in a 96-well tissue culture plate (Orange Scientific Braine l’Alleud, Belgium) in 100 μL culture medium/well for 2 days before the assays. Three different cytotoxicity protocols were used: 1) The alamar blue/resazurin fluorometric/colorimetric cell viability assay to assess the metabolic capacity and mitochondrial function; 2) the crystal violet cell viability assay for indirect quantification of cell death; and 3) the neutral red cell proliferation assay for lysosomal activity. Two days after seeding the cells, cultures were incubated with various concentrations of selected secondary metabolites at 20 °C for 48 h before cell viability was assessed. […] For the alamar blue/resazurin fluorometric/colorimetric cell viability assay, 100 μL of 3 μg/100 μL Resazurin sodium salt (Sigma-Aldrich, St. Louis, MO, USA) in incubation medium was added on each well and incubated under sterile conditions at 20 °C for 4 h. For the crystal violet cell viability assay, after 48 h of incubation with each secondary metabolite, the culture medium was aspirated and cells were washed twice with sterile dd. H2O. The final wash was aspirated and 50 μL of 0.5% (w/v) crystal violet staining solution (20% methanol in dd. H2O) was added to each well followed by incubation for 20 min at room temperature on a bench rocker with a frequency of 20 oscillations per minute. The staining solution was then aspirated and the plate was washed four times with sterile dd. H2O and left to air-dry without its lid for 3 h at room temperature. Next, 200 μL of methanol was added to each well, and the plate was incubated with its lid on for 20 min at room temperature on a bench rocker with a frequency of 20 oscillations per minute. For the neutral red cell proliferation assay, after 48 h of incubation with each secondary metabolite, the culture medium was aspirated and cells were washed twice with phosphate-buffered saline (PBS, pH 7.4). Cells were then incubated with 100 μL of a 40 μg/mL neutral red staining solution in culture medium at 20 °C for 4 h followed by two washes with 150 μL of PBS. Then cells were incubated with 100 μL neutral red destain solution (50% ethanol, 49% dd. H2O, 1% glacial acetic acid) for 10 min on a bench rocker with a frequency of 80 oscillations per minute. Absorbance was read at 570 nm for alamar blue/resazurin and crystal violet and at 540 nm for neutral red using a Tecan infinite M200 Pro microplate reader. For each assay and each secondary metabolite, a minimum of four independent dose–response experiments with three replicates each were carried out. Calculations were carried out using detailed formulas (AbCam, Cambridge, UK, and results were analyzed with GraphPad Prism v.6.
HEK293 cells, a human embryotic kidney cell line, were obtained from ATCC (ATCC® CRL-1573™) at passage 37 of the original clone and used at passage 38. Cells were cultured routinely in 75 cm^2 culture flasks (Orange Scientific, Braine l’Alleud, Belgium) at 37 °C (5% CO2) in DMEM cell culture medium (Biosera) supplemented with 10% FBS (Sigma-Aldrich, St. Louis, MO, USA) and 1% L-glutamine. All assay conditions and protocols were identical to those described above for RTL-W1 cells with the exception that incubations were carried out at 37 °C. […]

[2] = system: Bacillus mojavensis; assay: Marine bacteria growth assay (disc diffusion); type: cell-based; details: 24 h at 25 °C
Experimental: (§1) The ability of selected metabolites to inhibit the growth of bacteria was assessed using five strains of marine bacteria involved in marine surface biofilm formation, namely, B. subtilis, B. mojavensis, B. thuringiensis, P. putita and P. pseudoalcaligenes. Bacterial strains were maintained on Zobel marine agar plates. Sterile filter paper discs (4 mm) (GF/F; GE Healthcare, Little Chalfont, UK) were loaded with 40 μL samples of serial dilutions of each tested metabolite, allowed to dry at room temperature and then placed on agar plates (Zobel marine agar, pH = 7.3), which were seeded with a single strain of bacteria. Plates were incubated for 24 h at 25 °C. Marine bacteria growth inhibition was determined by measuring the zone of inhibition in mm around the filter paper disc. As a positive and negative control, standard discs were loaded with 40 μL of 0.5 M penicillin G (2 to 10 mm diameter) or solvent (40 μL methanol), respectively.

[3] = system: Bacillus subtilis; assay: Marine bacteria growth assay (disc diffusion); type: cell-based; details: 24 h at 25 °C
Experimental: as §1

[4] = system: Bacillus thuringiensis; assay: Marine bacteria growth assay (disc diffusion); type: cell-based; details: 24 h at 25 °C
Experimental: as §1

[5] = system: Pseudomonas pseudoalcaligenes; assay: Marine bacteria growth assay (disc diffusion); type: cell-based; details: 24 h at 25 °C
Experimental: as §1

[6] = system: Pseudomonas putita; assay: Marine bacteria growth assay (disc diffusion); type: cell-based; details: 24 h at 25 °C
Experimental: as §1

[7] = Artemia salina toxicity assay; type: in vivo; details: Artemia salina, in vivo, read-out: EC50 Artemia salina toxicity (mortality)
Experimental: The short-term toxicity assay with A. salina nauplii was used to determine the toxicity of secondary metabolites. Hatching of A. salina nauplii was carried out in ASW (35‰) using 0.5 g of cysts incubated in 500 mL seawater at a temperature of 25 ± 1 °C and lateral illumination (1000 Lux). All cysts were kept in continuous suspension with aeration and 24 h later hatched larvae (instar I) were harvested. Toxicity assays were carried out in three independent experiments in 24-well plates with four replicates of each tested concentration. Ten nauplii per well were transferred with a Pasteur pipette into the 24-well plates and each well was filled with 2 mL of ASW and 50 μL of various concentrations of the tested compounds in methanol. Control treatments received 50 μL of methanol. Plates were incubated in the dark at 25 ± 1 °C for 48 h. Mortality was assessed by recording the number of individuals with no movement of their appendages within 10 seconds and is expressed as the percentage of the total number of assessed individuals for each concentration.
For EC50 or IC50 (the concentration that results in 50% stimulation or inhibition relative to the control) calculations in GraphPad Prism v.6, all data were fitted to the curve according to the following models for normalized response: Y = 100/(1 + 10^((X − LogIC50))) or Y = 100/(1 + 10^((LogEC50 − X))) depending on the trend of the curve.

Structure (SMILES) | EC50 [1] | effect on bacterial growth [2] | effect on bacterial growth [3] | effect on bacterial growth [4] | effect on bacterial growth [5] | effect on bacterial growth [6] | LC50 at 24 h [7] | LC50 at 48 h [7] | effect on mitochondrial function and metabolism (in words) [1]
CC(C)[C@@H]1CC=C[C@H]2[C@H]3[C@](C)(CC[C@]12CBr)[C@@H](Br)CC[C@@]3(C)O [Bromosphaerol, reference compound] | 57.6 µM | none of these metabolites had any effect | none of these metabolites had any effect | none of these metabolites had any effect | none of these metabolites had any effect | none of these metabolites had any effect | – | – | –
CC1=C2CC[C@@](C)(Cl)[C@@H](Br)C[C@]2(C)[C@@H](C)[C@@H](Br)[C@@H]1O [Compound 9, perforenol] | 10.8 µM | none of these metabolites had any effect | none of these metabolites had any effect | none of these metabolites had any effect | none of these metabolites had any effect | none of these metabolites had any effect | 283 µM | 189 µM | –
C=CC(C)(O)CC[C@@H]1C(=C)CC[C@@H](Br)[C@@]1(C)CCC1OC1(C)C (some centres unmarked) [Compound 18] | 0.225 µM | none of these metabolites had any effect | none of these metabolites had any effect | none of these metabolites had any effect | none of these metabolites had any effect | none of these metabolites had any effect | 34.9 µM | 38.1 µM | very selective against mitochondrial function and metabolism
C=C(C1CCC(C)(O)C(Br)C1)C1C(Br)C2C(CCC2(C)O)C1(C)C (centres unmarked) [Compound 19, neorogioldiol] | 0.062 µM | none of these metabolites had any effect | none of these metabolites had any effect | none of these metabolites had any effect | none of these metabolites had any effect | none of these metabolites had any effect | 31.5 µM | 304 µM | very selective against mitochondrial function and metabolism
